From ChEMBL document CHEMBL6083210, “Exploring apoptotic induction of malabaricone A in triple-negative breast cancer cells: an acylphenol phyto-entity isolated from the fruit rind of Myristica malabarica Lam” (RSC Med Chem, 2024)
Calls of active or inactive are those of the source. No cut-off for these calls is given here.

Key:
MDA-MB-231 [1] = experiment: Downregulation of cIAP-2 protein level in human MDA-MB-231 cells at 8 uM measured after 24 hrs; type: functional, cell-based
MDA-MB-231 [2] = experiment: Induction of apoptosis in human MDA-MB-231 cells assessed as early apoptotic cells at 8 uM incubated for 24 hrs by FITC annexin V staining based analysis (reference value: 1.4%); type: functional
MDA-MB-231 [3] = experiment: Induction of cell cycle arrest in human MDA-MB-231 cells assessed as accumulation of cells at Sub G0 phase at 6 uM incubated for 24 hrs by PI staining based flow cytometry analysis (reference value: 5.3%); type: functional
MDA-MB-231 [4] = experiment: Induction of apoptosis in human MDA-MB-231 cells assessed as increase in green fluorescence incubated for 24 hrs by acridine orange and ethidium bromide dual staining based analysis; type: functional, cell-based; conditions: dose 6-10 µM
SK-BR-3 = experiment: Antiproliferative activity against human SK-BR-3 cells assessed as reduction in cell viability incubated for 24 hrs by MTT assay; type: functional, cell-based; conditions: SK-BR-3, 24 h
MDA-MB-231 [5] = experiment: Upregulation of HTRA protein level in human MDA-MB-231 cells at 8 uM measured after 24 hrs; type: functional, cell-based
MDA-MB-231 [6] = experiment: Downregulation of Cdc25c level in human MDA-MB-231 cells at 6 to 10 uM by Western blot analysis; type: functional, cell-based; conditions: dose 6-10 µM
MDA-MB-231 [7] = experiment: Downregulation of Cdk2 level in human MDA-MB-231 cells at 6 to 10 uM by Western blot analysis; type: functional, cell-based; conditions: dose 6-10 µM
MDA-MB-231 [8] = experiment: Induction of cell cycle arrest in human MDA-MB-231 cells assessed as accumulation of cells at G2 phase at 8 uM incubated for 24 hrs by PI staining based flow cytometry analysis (reference value: 7.9%); type: functional
MDA-MB-231 [9] = experiment: Induction of apoptosis in human MDA-MB-231 cells assessed as necrotic cells at 10 uM incubated for 24 hrs by FITC annexin V staining based analysis (reference value: 0.8%); type: functional
MDA-MB-231 [10] = experiment: Downregulation of cyclin A2 level in human MDA-MB-231 cells at 6 to 10 uM by Western blot analysis; type: functional, cell-based; conditions: dose 6-10 µM
MDA-MB-231 [11] = experiment: Induction of apoptosis in human MDA-MB-231 cells assessed as late apoptotic cells at 8 uM incubated for 24 hrs by FITC annexin V staining based analysis (reference value: 7.3%); type: functional
MDA-MB-231 [12] = experiment: Induction of morphological changes in human MDA-MB-231 cells assessed as membrane breakage at 6 to 10 uM measured 24 hrs by EtBr-AO Live dead Assay; type: functional, cell-based; conditions: dose 6-10 µM
MDA-MB-231 [13] = experiment: Antiproliferative activity against human MDA-MB-231 cells assessed as reduction in cell viability at 1 to 50 uM by MTT assay; type: functional, cell-based; conditions: dose 1-50 µM, time 12-48 hrs
MDA-MB-231 [14] = experiment: Induction of apoptosis in human MDA-MB-231 cells assessed as early apoptotic cells at 10 uM incubated for 24 hrs by FITC annexin V staining based analysis (reference value: 1.4%); type: functional
MDA-MB-231 [15] = experiment: Downregulation of livin protein level in human MDA-MB-231 cells at 8 uM measured after 24 hrs; type: functional, cell-based
MDA-MB-231 [16] = experiment: Induction of apoptosis in human MDA-MB-231 cells assessed as viable cells at 10 uM incubated for 24 hrs by FITC annexin V staining based analysis (reference value: 90.5%); type: functional; conditions: read-out: Activity
MDA-MB-231 [17] = experiment: Upregulation of TNF-beta protein level in human MDA-MB-231 cells at 8 uM measured after 24 hrs; type: functional, cell-based
MDA-MB-231 [18] = experiment: Upregulation of Bad protein level in human MDA-MB-231 cells at 8 uM measured after 24 hrs; type: functional, cell-based
MDA-MB-231 [19] = experiment: Upregulation of Fas protein level in human MDA-MB-231 cells at 8 uM measured after 24 hrs; type: functional, cell-based
MDA-MB-231 [20] = experiment: Induction of apoptosis in human MDA-MB-231 cells assessed as fold increase in caspase 9 level at 8 uM by fluorometric assay; type: functional
MDA-MB-231 [21] = experiment: Induction of apoptosis in human MDA-MB-231 cells assessed as late apoptotic cells at 6 uM incubated for 24 hrs by FITC annexin V staining based analysis (reference value: 7.3%); type: functional
MDA-MB-231 [22] = experiment: Upregulation of Smac protein level in human MDA-MB-231 cells at 8 uM measured after 24 hrs; type: functional, cell-based
MDA-MB-231 [23] = experiment: Upregulation of Bid protein level in human MDA-MB-231 cells at 8 uM measured after 24 hrs; type: functional, cell-based
MDA-MB-231 [24] = experiment: Upregulation of p53 protein level in human MDA-MB-231 cells at 8 uM measured after 24 hrs; type: functional, cell-based
MDA-MB-231 [25] = experiment: Induction of apoptosis in human MDA-MB-231 cells assessed as dead cells by measuring pink coloration at 6 to 10 uM incubated for 24 hrs by APO staining based analysis; type: functional, cell-based; conditions: dose 6-10 µM
MDA-MB-231 [26] = experiment: Induction of apoptosis in human MDA-MB-231 cells assessed as necrotic cells at 8 uM incubated for 24 hrs by FITC annexin V staining based analysis (reference value: 0.8%); type: functional
MDA-MB-231 [27] = experiment: Induction of morphological changes in human MDA-MB-231 cells assessed as decrease in cell number at 15 uM measured upto 18 hrs by acridine orange and ethidium bromide dual staining based inverted microscopic analysis; type: functional
MDA-MB-231 [28] = experiment: Induction of apoptosis in human MDA-MB-231 cells assessed as viable cells at 8 uM incubated for 24 hrs by FITC annexin V staining based analysis (reference value: 90.5%); type: functional; conditions: read-out: Activity

O=C(CCCCCCCCc1ccccc1)c1c(O)cccc1O [MALABARICONE A]
Activity (MDA-MB-231 [1]): Active
Activity (MDA-MB-231 [2]): 6.45%
Activity (MDA-MB-231 [3]): 48.7%
Activity (MDA-MB-231 [4]): Dose-dependent-effect
IC50 (SK-BR-3): 8.39 µM
Activity (MDA-MB-231 [5]): Active
Activity (MDA-MB-231 [6]): Active
Activity (MDA-MB-231 [7]): Active
Activity (MDA-MB-231 [8]): 2.9%
Activity (MDA-MB-231 [9]): 12.7%
Activity (MDA-MB-231 [10]): Active
Activity (MDA-MB-231 [11]): 35.25%
Activity (MDA-MB-231 [12]): Active
Activity (MDA-MB-231 [13]): Time-dependent-effect
Activity (MDA-MB-231 [14]): 4.25%
Activity (MDA-MB-231 [15]): Active
viability at 10 µM (MDA-MB-231 [16]): 32.4%
Activity (MDA-MB-231 [17]): Active
Activity (MDA-MB-231 [18]): Active
Activity (MDA-MB-231 [19]): Active
fold change (FC) (MDA-MB-231 [20]): 3.1
Activity (MDA-MB-231 [21]): 20.4%
Activity (MDA-MB-231 [22]): Active
Activity (MDA-MB-231 [23]): Active
Activity (MDA-MB-231 [24]): Active
Activity (MDA-MB-231 [25]): Active
Activity (MDA-MB-231 [26]): 8.05%
Activity (MDA-MB-231 [27]): Active
viability at 8 µM (MDA-MB-231 [28]): 50.2%
